# In patent US7976863B2, “Biomedical devices with antimicrobial coatings” (priority 2002, dated 2011):
# Ends that are not written are not given here.
# Legend:
# Assay type in all cases: cell-based
# S. aureus 31 [1] = test: MIC in solution (tube/microtitre turbidity); settings: MIC, peptide in solution, 18 hours at 35° C.
# Protocol: (§1) To assess the effect of cationic proteins/peptides in solution against bacterial cells, Psudomonas aeruginosa 6294 and Staphylacoccus aureus 31 cells were grown as for 18 hours in Tryptone Soya Broth (TSB) at 35° C. The cells were then harvested by centrifugation and washed twice in phosphate buffered saline (PBS; NaCl 8 g/l; KCl 0.2 g/l; Na2HPO4 1.15 g/l; KH2PO4 0.2 g/l). The cells were then re-suspended to OD 0.1 at 660 nm in PBS. The cationic peptide was serially diluted from 1 mg/ml and dilutions were added to wells in a 96 well microtitre plate or into 5 ml disposable test-tubes. Controls were bacteria without peptides. Bacteria were incubated for 18 hours at 35° C. and turbidity was measured at 660 nm. A lack of turbidity in the test-tube corresponding to the peptide dilution was considered to be the minimum inhibitory concentration (“MIC”).
# P. aeruginosa 6294 [2] = settings: for minimum concentration required to inhibit bacterial growth, P.a 6284: MIC, peptide in solution, 18 hours at 35° C.
# Protocol: as §1
# sheep red blood cells = test: Lysis of sheep red blood cells; settings: 37° C. for 4 h, various concentrations
# Protocol: FIG. 1 is a graph showing the % lysis sheep red blood cells relative to water for various peptides.
# (§2) For in vitro cytotoxic testing, solutions of L-Melimine were prepared in PBS (500 μg/ml, 250 μg/ml, 125 μg/ml and 62.5 μg/ml). Solutions were then diluted 1:3 in tissue culture media (EMEM) and added to murine L929 cells for 48 hours. Cells are rinsed in saline then harvested using 0.25% trypsin for 3-5 minutes at ambient temperature. 1 ml of saline is then added to cells and trypsin mixture, a 500 μl aliquot is added to 19.5 ml of saline and counted in a coulter counter in triplicate. Results are compared to unperturbed cultures as well as positive (cyotoxic) controls. Results are expressed as percentage of non-viable cells (100-number of cells in sample/number of cells in unperturbed cells×100). In addition, the ability of the peptides to lyze sheep red blood cells was examined. The sheep red blood cells were washed and resuspended in PBS. Peptides at various concentrations were added to the red blood cells and incubated at 37° C. for 4 h. 100% lysis was obtained using distilled water and 0% lysis was obtained using PBS. Lysis was measured by measuring the amount of haemoglobin released into the PBS after centrifugation to remove whole red blood cells.
# S. aureus CK5 [3] = test: MIC in solution (tube/microtitre turbidity); settings: MIC, peptide in solution, 18 hours at 35° C.
# P. aeruginosa 15442 [4] = test: MIC in solution (tube/microtitre turbidity); settings: MIC, peptide in solution, 18 hours at 35° C.
# P. aeruginosa 6294 [5] = test: Viable counts of bacteria adhered to peptide-adsorbed Etafilcon A lenses; settings: 500 μg/lens adsorbed on Etafilcon lens, vs uncoated control lens
# Protocol: (§3) For conducting viable counts, Etafilcon A lenses were removed from the manufacturers vials, washed three times in 1 ml PBS, dried and then coated by pipetting 500 μg L-Melimine onto the contact lenses (melimine was dissolved in […] and air dried onto contact lenses) overnight at ambient temperature in a fume hood. Lenses were rehydrated in PBS for 10 minutes and 0.5 ml of 1×10^8 bacterial cells/ml, including gram-positive S. aureus and gram-negative P. aeruginosa were added to the lenses. After incubation at ambient temperature for either 10 min or 5 hours, the lenses were washed three times in PBS to remove non-adherent or loosely adherent bacteria. Lenses were then homogenized using tissue homogenizer and 1 ml PBS until lens disintegration (about 1-2 minutes). Serial dilutions were then made according to the technique of Miles and Misra and aliquots (20 μL) plated out on nutrient agar. After incubation overnight at 37° C., viable bacteria were determined and results expressed as colony forming units/mm^2 after calculation of the surface area of the lens (approximately 310 mm^2). The effects are calculated based upon comparison to adhesion control lens that was not coated with cationic protein/peptide before bacterial adhesion testing.
# (§4) Etafilcon lenses, commercially available from Johnson & Johnson as ACUVUE® Brand contact lenses) were soaked as in Example 2, above, except that the L-melimine concentration was varied: 125 μg, 250 μg or 500 μg/lens. After absorption of L-Melimine onto the hydrogel polymer, the lenses were rehydrated with PBS, and exposed to S. aureus or P. saeruginosa for either 10 minutes or five hours, as described in Example 2. After exposure, the polymer was evaluated for numbers of microorganisms the standard Miles and Misra plate count assay.
# (§5) Stock solutions (50 mg/ml) were prepared containing the L-Protattin in distilled water. 500 μg of the stock solution was adsorbed to a contact lens made from Etafilcon A as for L-melamine in Example 2 for 18 hours at ambient temperature in a fume hood. The subsequent experimental details are as described in Example 2, above and viable bacteria was measured.
# (§6) Contact lenses were coated and dried (as in Example 2) and D-Melimine applied at a concentration of either 250 μg per lens or 500 μg per lens. D-melimine was made using D-amino acids as for L-melimine using standard peptide synthesis techniques (e.g. Fmoc). Assays for measuring inhibition of bacterial adhesion were performed as in Example 2.
# S. aureus 31 [6] = test: as above; settings: 500 μg/lens adsorbed on Etafilcon lens, vs uncoated control lens
# Protocol: as §3, §4, §5, §6
# P. aeruginosa 15442 [7] = test: as above; settings: 500 μg/lens adsorbed on Etafilcon A lens, vs uncoated control lens
# Protocol: as §3, §5
# S. aureus CK5 [8] = test: as above; settings: 500 μg/lens adsorbed on Etafilcon A lens, vs uncoated control lens
# Protocol: as §3, §5
# P. aeruginosa 6294 [9] = test: Heat stability study: inhibition of growth in solution after autoclaving; settings: 1000 μg/ml in PBS mixed with equal volume of bacteria
# Protocol: (§7) A heat stability study was conducted to evaluate whether post-exposure of the L-Melimine to autoclaving would alter the ability of the peptide to prevent bacterial growth.
# (§8) Bacteria (P. aeruginosa 6294 and S. aureus 31) were grown for 18 hours at 35° C. in TSB, then washed twice in PBS. The bacteria were resuspended in PBS to an optical density of 0.1 at 660 nm. L-Melimine was dissolved in PBS to a concentration of 1000 μg/ml and autoclaved at 121° C. for 15 minutes. Equal volumes of bacterial suspension and L-Melimine were then added together and incubated at 35° C. for periods of up to 72 hours. Controls were non-autoclaved L-Melimine. After 24, 48 and 72 hours, aliquots of the bacteria/L-Melimine solutions were removed and the number of viable bacteria were counted using the standard Miles and Misra plate count assay.
# S. aureus 31 [10] = test: as above; settings: 1000 μg/ml in PBS mixed with equal volume of bacteria
# Protocol: as §7, §8
# murine L929 cells = test: In vitro cytotoxic testing; settings: for % cell inhibition: 48 hours
# Protocol: as §2
# P. aeruginosa = tested on: P. aeruginosa
# Protocol: as §1
# (§9) L-Melimine was evaluated to determine its potential to induce resistance in P. aeruginosa and S. aureus. Prior to L-Melimine exposure, MICs of both strains were determined as in Example 1. […] Bacteria were grown overnight in TSB. Bacteria were inoculated 1:100 into fresh TSB containing sub-inhibitory levels of L-Melimine and incubated overnight. Bacteria from the broth containing sub-inhibitory levels (column 2, Table 9) were then re-incubated in fresh TSB with the same concentration of L-Melimine. This was repeated for 30 consecutive days. After passaging, a MIC for the bacteria from the last passage was determined. Any increase in MIC would indicate a potential for bacteria to become resistant.
# S. aureus = tested on: S. aureus
# Protocol: as §1, §9
# [11] = Autoclaved at 121° C. for 15 minutes
# [12] = Treatment None (non-autoclaved)
compound,measurement,setting,value
CC[C@H](C)[C@H](NC(=O)CN)C(=O)NCC(=O)N[C@@H](C)C(=O)N[C@H](C(=O)N[C@@H](CC(C)C)C(=O)N[C@@H](CCCCN)C(=O)N[C@H](C(=O)N[C@@H](CC(C)C)C(=O)N[C@H](C(=O)N[C@H](C(=O)NCC(=O)N[C@@H](CC(C)C)C(=O)N1CCC[C@H]1C(=O)N[C@@H](C)C(=O)N[C@@H](CC(C)C)C(=O)N[C@H](C(=O)N[C@@H](CO)C(=O)N[C@@H](Cc1c[nH]c2ccccc12)C(=O)N[C@H](C(=O)N[C@@H](CCCCN)C(=O)N[C@@H](CCCNC(=N)N)C(=O)N[C@@H](CCCCN)C(=O)N[C@@H](CCCNC(=N)N)C(=O)N[C@@H](CCC(N)=O)C(=O)N[C@@H](CCC(N)=O)C(N)=O)[C@@H](C)CC)[C@@H](C)CC)[C@@H](C)O)[C@@H](C)O)C(C)C)C(C)C [Mellitin],"minimum concentration required to inhibit bacterial growth, S.a. 31",S. aureus 31 [1],15 µg/mL
same,"minimum concentration required to inhibit bacterial growth, P.a 6284",P. aeruginosa 6294 [2],"R (R = resistant, highest concentration of peptide = 1000 ug/Ml)"
same,"hemolysis of red blood cells (FIG. 1, % lysis relative to water)",sheep red blood cells,extensive hemolysis
"PRRRRSSSRPVRRRRRPRVSRRRRRRGGRRRR [Protamine, full-length protamine comparison]","minimum concentration required to inhibit bacterial growth, S.a. 31",S. aureus 31 [1],"R (R = resistant, highest concentration of peptide = 1000 ug/Ml)"
same,"minimum concentration required to inhibit bacterial growth, P.a 6284",P. aeruginosa 6294 [2],"R (R = resistant, highest concentration of peptide = 1000 ug/Ml)"
RPRVSRRRRRRGGRRRRTLISWIKNKRKQ (RPRVSRRRRRRGGRRRRTLISWIKNKRKQ) [Prottatin],"minimum concentration required to inhibit bacterial growth, S.a. 31",S. aureus 31 [1],1000 µg/mL
same,"minimum concentration required to inhibit bacterial growth, S.a. CK5",S. aureus CK5 [3],500 µg/mL
same,"minimum concentration required to inhibit bacterial growth, P.a 6284",P. aeruginosa 6294 [2],500 µg/mL
same,"minimum concentration required to inhibit bacterial growth, P.a 15442",P. aeruginosa 15442 [4],1000 µg/mL
same,% reduction at 10 min,P. aeruginosa 6294 [5],97 ± 5 (6) %
same,% reduction at 5 hrs,P. aeruginosa 6294 [5],57 ± 39 (6) %
same,% reduction at 10 min,S. aureus 31 [6],64 ± 18 (6) %
same,% reduction at 5 hrs,S. aureus 31 [6],43 ± 33 (6) %
same,% reduction at 10 min,P. aeruginosa 15442 [7],94 ± 4 (8) %
same,% reduction at 5 hrs,P. aeruginosa 15442 [7],63 ± 32 (7) %
same,% reduction at 10 min,S. aureus CK5 [8],6 ± 62 (7) %
same,% reduction at 5 hrs,S. aureus CK5 [8],3 ± 25 (7) %
"RPRVSRRRRRRGGRRRR [Protamine (1-17), 1-17 segment of protamine, segment B]","minimum concentration required to inhibit bacterial growth, S.a. 31",S. aureus 31 [1],"R (R = resistant, highest concentration of peptide = 1000 ug/Ml)"
same,"minimum concentration required to inhibit bacterial growth, S.a. CK5",S. aureus CK5 [3],1000 µg/mL
same,"minimum concentration required to inhibit bacterial growth, P.a 6284",P. aeruginosa 6294 [2],"R (R = resistant, highest concentration of peptide = 1000 ug/Ml)"
same,"minimum concentration required to inhibit bacterial growth, P.a 15442",P. aeruginosa 15442 [4],"R (R = resistant, highest concentration of peptide = 1000 ug/Ml)"
"TLISWIKNKRKQ [Mellitin (15-26), 15-26 segment of mellitin, segment A]","minimum concentration required to inhibit bacterial growth, S.a. 31",S. aureus 31 [1],"R (R = resistant, highest concentration of peptide = 1000 ug/Ml)"
same,"minimum concentration required to inhibit bacterial growth, S.a. CK5",S. aureus CK5 [3],"R (R = resistant, highest concentration of peptide = 1000 ug/Ml)"
same,"minimum concentration required to inhibit bacterial growth, P.a 6284",P. aeruginosa 6294 [2],"R (R = resistant, highest concentration of peptide = 1000 ug/Ml)"
same,"minimum concentration required to inhibit bacterial growth, P.a 15442",P. aeruginosa 15442 [4],"R (R = resistant, highest concentration of peptide = 1000 ug/Ml)"
"TLISWIKNKRKQRPRVSRRRRRRGGRRRR [Melimine, TLISWIKNKRKQRPRVSRRRRRRGGRRRR]","MIC, P. aeruginosa resistant up to","P. aeruginosa 6294 [2]; text summary of Table 1, highest concentration used",> 1000 µg/mL
same,% inhibition of growth @ 24 hours,P. aeruginosa 6294 [9]; [11],100 (3) %
same,% inhibition of growth @ 48 hours,P. aeruginosa 6294 [9]; [11],100 (3) %
same,% inhibition of growth @ 72 hours,P. aeruginosa 6294 [9]; [11],100 (2) %
same,% inhibition of growth @ 24 hours,P. aeruginosa 6294 [9]; [12],100 (5) %
same,% inhibition of growth @ 48 hours,P. aeruginosa 6294 [9]; [12],100 (3) %
same,% inhibition of growth @ 72 hours,P. aeruginosa 6294 [9]; [12],100 (2) %
same,% inhibition of growth @ 24 hours,S. aureus 31 [10]; [11],100 (3) %
same,% inhibition of growth @ 48 hours,S. aureus 31 [10]; [11],100 (3) %
same,% inhibition of growth @ 72 hours,S. aureus 31 [10]; [11],99 (2) %
same,% inhibition of growth @ 24 hours,S. aureus 31 [10]; [12],100 (5) %
same,% inhibition of growth @ 48 hours,S. aureus 31 [10]; [12],100 (3) %
same,% inhibition of growth @ 72 hours,S. aureus 31 [10]; [12],99 (2) %
same,% cell inhibition,murine L929 cells; 62.5 μg/ml solution in PBS diluted 1:3 in EMEM,20%
same,% cell inhibition,murine L929 cells; 125 μg/ml solution in PBS diluted 1:3 in EMEM,8%
same,% cell inhibition,murine L929 cells; 250 μg/ml solution in PBS diluted 1:3 in EMEM,26%
same,% cell inhibition,murine L929 cells; 500 μg/ml solution in PBS diluted 1:3 in EMEM,44%
same,cytotoxicity (in words),murine L929 cells; at 500 μg/ml,marginally cytotoxic
same,cytotoxicity (in words),"murine L929 cells; at all other concentrations (250, 125, 62.5 μg/ml)",non-cytotoxic
same,"hemolysis of red blood cells (FIG. 1, % lysis relative to water)",sheep red blood cells,least amount of hemolysis of any peptide/protein
same,MIC post-passage,P. aeruginosa; after 30 consecutive days passage,4000 µg/mL
same,MIC prior to passage,"P. aeruginosa; starting concentration raised to 15 mg/ml, procedure of Example 1",4000 µg/mL
same,MIC post-passage,S. aureus; after 30 consecutive days passage at 30 μg/ml,63 µg/mL
same,MIC prior to passage,S. aureus; procedure of Example 1,125 µg/mL
